Data on 2 molecules can be found in paper PMC10099813, “Stafiba: A STAT5‐Selective Small‐Molecule Inhibitor” (Chembiochem, 2022).

One data set has as its target T1, STAT6 (Homo sapiens, UniProt P42226).
T1 sequence (P42226 1-847): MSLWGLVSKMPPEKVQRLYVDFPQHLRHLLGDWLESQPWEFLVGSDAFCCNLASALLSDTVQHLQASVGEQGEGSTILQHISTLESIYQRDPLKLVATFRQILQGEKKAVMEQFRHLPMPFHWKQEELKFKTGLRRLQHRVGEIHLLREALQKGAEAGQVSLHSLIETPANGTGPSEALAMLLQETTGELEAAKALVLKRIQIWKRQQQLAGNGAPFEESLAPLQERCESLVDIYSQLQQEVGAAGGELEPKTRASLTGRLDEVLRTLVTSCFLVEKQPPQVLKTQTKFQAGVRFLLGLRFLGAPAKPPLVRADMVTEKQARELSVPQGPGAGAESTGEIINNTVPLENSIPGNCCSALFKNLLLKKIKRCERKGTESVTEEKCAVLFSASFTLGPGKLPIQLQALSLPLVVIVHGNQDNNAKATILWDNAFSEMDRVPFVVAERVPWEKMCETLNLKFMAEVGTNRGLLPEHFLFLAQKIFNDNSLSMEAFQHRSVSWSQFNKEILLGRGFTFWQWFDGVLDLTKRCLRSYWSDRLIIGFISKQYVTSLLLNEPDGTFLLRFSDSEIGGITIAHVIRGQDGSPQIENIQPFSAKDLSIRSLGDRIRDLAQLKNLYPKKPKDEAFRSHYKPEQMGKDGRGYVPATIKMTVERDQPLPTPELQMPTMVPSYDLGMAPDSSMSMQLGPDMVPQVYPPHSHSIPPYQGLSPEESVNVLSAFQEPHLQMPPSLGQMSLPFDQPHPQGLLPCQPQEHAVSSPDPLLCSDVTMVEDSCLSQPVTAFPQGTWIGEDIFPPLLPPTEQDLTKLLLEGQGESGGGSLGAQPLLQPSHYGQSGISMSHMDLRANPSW
The data set is described as follows: Competitive fluorescence polarization (FP) binding assay, STAT6. As to the method: Fluorescence polarization assays: Competitive binding assays based on fluorescence polarization were carried out essentially as previously described.[[4a]] Unless stated otherwise, final concentrations of the buffer components were: 10 mM Tris (pH 8.0), 50 mM NaCl, 1 mM EDTA, 1 mM DTT, 0.1 % (v/v) Nonidet P‐40 substitute, and 2 % DMSO. Proteins were used at concentrations which reflect the Kd values of the interactions between the fluoropeptide and the protein preparations. Protein concentrations used for activity analysis of compound 5 were 91 nM for STAT1, 107 nM for STAT3, 28 nM for STAT4, 122 nM for STAT5a, 56 nM for STAT5b and 101 nM for STAT6. Protein concentrations used for activity analysis of AC‐4‐130 were 103 nM for STAT5a and 62 nM for STAT5b. […] Final concentration of all fluorescent‐labelled peptides was 10 nM. The following peptides were used in assays: 5‐carboxyfluorescein‐GpYDKPHVL for STAT1; 5‐carboxyfluorescein‐GpYLPQTV‐NH2 for STAT3; 5‐carboxyfluorescein‐GpYLPQNID for STAT4; 5‐carboxyfluorescein‐GpYLVLDKW for STAT5a/5b, and 5‐carboxyfluorescein‐GpYVPWQDLI for STAT6. Protein and test compounds were incubated for 1 h prior to addition of the fluorescein‐labeled peptide. Fluorescence polarization was measured after another 60 min using an Infinite F500 plate reader (Tecan). IC50 values were converted to Ki‐values using the published equation.[13]
For orientation: In fluorescence polarisation assays a small probe gives low polarisation when free and higher when bound to something large.

Data set [1] can be described thus: Solubility as observed during synthesis / stock preparation. The data set is classed as physicochemical. The note with it: DMSO stock solution.

In general, inhibition refers to how much of the control response was suppressed. A low value points to little suppression. What is called IC50 is the concentration that gives 50% inhibition. A low value points to greater potency in that assay. A word on the Ki: it is the equilibrium dissociation constant of an inhibitor or competing ligand from its target.

Regarding `O=C(CNc1ccc(C(=O)Nc2ccc(Oc3ccccc3)cc2)cc1)NCc1cc(OP(=O)(O)O)cc(OP(=O)(O)O)c1` [compound 5], on STAT6 (100 µM, 2 % DMSO), testing at 100 µM gave an inhibition of 48 ± 1%.

As to `O=C(CNc1ccc(C(=O)Nc2ccc(Oc3ccccc3)cc2)cc1)NCc1cc(C(F)(F)P(=O)(O)O)c(F)c(C(F)(F)P(=O)(O)O)c1` [compound 10], the “solubility in the DMSO stock solution” value in data set [1] was “limited solubility”. The molecule also yielded an IC50 on STAT6 (10 % DMSO) of 61.3 ± 2.7 µM. In addition, at STAT6 (Ki calculated from IC50, 10 % DMSO), the Ki is 30.1 ± 1.3 µM.
